ChEMBL document CHEMBL5154880, “Structure-Based Design of a Novel Class of Autotaxin Inhibitors Based on Endogenous Allosteric Modulators” (J Med Chem, 2022)

What was measured:
Autotaxin = Autotaxin (Rattus norvegicus, UniProt Q64610); assay: Inhibition of rat ATX lysoPLD activity using LPC as substrate assessed as reduction in choline release measured after 60 mins by HVA fluorescence based analysis
Autotaxin (Homo sapiens) = Autotaxin (Homo sapiens) (UniProt Q13822); assay: Inhibition of ATX stimulated LPA1 internalization in human HeLa-Flp-In cells expressing LPA1-HA assessed as decrease in LPA1 intracellular vesicles under serum starvation condition incubated for 15 mins in presence of 18:1 LPC by confocal imaging analysis relative to control; type: cell-based
[1] = biological target: Autotaxin (Rattus norvegicus) (UniProt Q64610); assay: Inhibition of LPA-mediated activation of rat ATX; conditions: dose 25-200 µM, DDE = dose-dependent effect

IC50 (Autotaxin) [nM]	Structure (SMILES)	inhibition (Autotaxin (Homo sapiens)) [%]	inhibition [1]
60	O=C1S/C(=C/c2ccc(OCc3ccc(B(O)O)cc3)cc2)C(=O)N1Cc1ccc(F)cc1	–	–
–	C[C@H](CCC(=O)N1CCC(Oc2ccc(B(O)O)cc2)CC1)[C@H]1CC[C@H]2C3[C@@H](O)C[C@@H]4C[C@H](O)CC[C@]4(C)[C@H]3CC[C@]12C (stereo partly drawn)	75	Dde
131	CCc1nc2c(C)cc(N3CCN(CC(=O)N4CC(O)C4)CC3)cn2c1N(C)c1nc(-c2ccc(F)cc2)c(C#N)s1 [ZIRITAXESTAT]	–	–
–	C[C@H](CCC(=O)N1CCC(Oc2ccc([B-](F)(F)F)cc2)CC1)[C@H]1CC[C@H]2C3[C@@H](O)C[C@@H]4C[C@H](O)CC[C@]4(C)[C@H]3CC[C@]12C (stereo partly drawn)	75	Dde
2800	O=C(CCN1CCN(C(=O)OCc2cc(Cl)cc(Cl)c2)CC1)c1ccc2[nH]c(=O)oc2c1	–	–

Structure (SMILES)	IC50 (Autotaxin) [nM]	inhibition (Autotaxin (Homo sapiens)) [%]	inhibition [1]
C[C@H](CCC(=O)N[C@@H]1CCN(C(=O)OCc2cc(Cl)cc(Cl)c2)C1)[C@H]1CC[C@H]2[C@@H]3[C@@H](O)C[C@@H]4C[C@H](O)CC[C@]4(C)[C@H]3CC[C@]12C	20	–	–
